Like-named read-outs stand apart in the source and are kept apart here.
What was measured:
[1] = mouse, plasma
[2] = rat, plasma
[3] = dog, plasma
[4] = human, plasma
in vitro = conditions: human
[5] = mouse
[6] = rat
[7] = human

For C[C@@H](CNC(=O)[C@H](O)C(C)(C)CO)NC(=O)c1cc(F)c(F)cc1F [MMV693183-03], the “% Bound Avg” value [1] was 33.4%, the “% Bound n=1” value [1] was 32.91% and the “% Bound n=2” value [1] was 33.90%. For the same compound, the “% Free n=1” value [1] was 67.09%, the “% Free n=2” value [1] was 66.10% and the “% Bound Avg” value [2] was 39.9%. The “% Bound n=1” value [2] was 39.84%, the “% Bound n=2” value [2] was 39.89% and the “% Free n=1” value [2] was 60.16%. The “% Free n=2” value [2] was 60.11%, the “% Bound Avg” value [3] was 41.3% and the “% Bound n=1” value [3] was 42.38%. For the same compound, the “% Bound n=2” value [3] was 40.31%, the “% Free n=1” value [3] was 57.62% and the “% Free n=2” value [3] was 59.69%. For the same compound, the “% Bound Avg” value [4] was 51.9%, the “% Bound n=1” value [4] was 52.54% and the “% Bound n=2” value [4] was 51.24%. For the same compound, the “% Free n=1” value [4] was 47.46% and the “% Free n=2” value [4] was 48.76%.
In the case of NC(=O)N1c2ccccc2C=Cc2ccccc21 [Carbamazepine], the Papp A→B at 9000 Sec, 2 µM (in vitro; Caco-2, pH 7.4) is reported as 25 ×10⁻⁶ cm/s, the Papp B→A at 9000 Sec, 2 µM (in vitro; Caco-2, pH 7.4) is reported as 28.9 ×10⁻⁶ cm/s and the efflux ratio at 9000 Sec, 2 µM (in vitro; Caco-2, pH 7.4) is reported as 1.2. For the same compound, the Papp at 9000 Sec, 2 µM (in vitro; Caco-2, pH 7.4, Papp AVG) was 25 ×10⁻⁶ cm/s and the Papp at 9000 Sec, 2 µM (in vitro; Caco-2, pH 7.4, Papp n=1, 2) was 24.3 ×10⁻⁶ cm/s.
With C[C@@H](CNC(=O)[C@H](O)C(C)(C)CO)NC(=O)c1cc(F)c(F)cc1F [MMV693183-08] the “Blood to Plasma ratio Avg(n=2)” value [5] was 0.98, the “Blood to Plasma ratio Avg(n=2)” value [6] was 0.91 and the “Blood to Plasma ratio Avg(n=2)” value [7] was 0.97.
